Measured values from the supplement of paper PMC11061612.

Legend:
Paclitaxel = compound: CC(=O)O[C@H]1C(=O)[C@@]2(C)[C@H]([C@H](OC(=O)c3ccccc3)[C@]3(O)C[C@H](OC(=O)[C@H](O)[C@@H](NC(=O)c4ccccc4)c4ccccc4)C(C)=C1C3(C)C)[C@]1(OC(C)=O)CO[C@@H]1C[C@@H]2O [Paclitaxel]; details: max 3 µM
Procedure, shortened: (§1)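 Viability was measured with CellTiter-Glo 2.0 luminescence after 72 hours of dosing at a final DMSO of typically 0.2%, and scaled between blank-well and DMSO-well means. Beforehand, cancer cell lines sat 24 hours at 37°C and 5% CO2 in 1536-well plates in 7.5 μl DMEM/F12 or RPMI with 10% FBS. A non-linear mixed effects model fitted two-parameter logistic curves to the dose responses. The single-agent IC50 comes from these fits.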

Doxorubicin = compound: COc1cccc2c1C(=O)c1c(O)c3c(c(O)c1C2=O)C[C@@](O)(C(=O)CO)C[C@@H]3O[C@H]1C[C@H](N)[C@H](O)[C@H](C)O1 [Doxorubicin]; details: max 1 µM
Procedure, shortened: as §1

AZD5153 = compound: COc1nnc2ccc(N3CCC(c4ccc(OCCN5CCN(C)C(=O)[C@H]5C)cc4)CC3)nn12 [AZD5153]; details: max 1 µM
Procedure, shortened: as §1

AZD8186 = compound: C[C@@H](Nc1cc(F)cc(F)c1)c1cc(C(=O)N(C)C)cc2c(=O)cc(N3CCOCC3)oc12 [AZD8186]; details: max 10 µM
Procedure, shortened: as §1

SRA737 = compound: N#Cc1cnc(Nc2cc(NC[C@H]3CNCCO3)c(C(F)(F)F)cn2)cn1 [SRA737]; details: max 10 µM
Procedure, shortened: as §1

Prexasertib = compound: COc1cccc(OCCCN)c1-c1cc(Nc2cnc(C#N)cn2)n[nH]1 [Prexasertib]; details: max 1 µM
Procedure, shortened: as §1

Venetoclax = compound: CC1(C)CCC(CN2CCN(c3ccc(C(=O)NS(=O)(=O)c4ccc(NCC5CCOCC5)c([N+](=O)[O-])c4)c(Oc4cnc5[nH]ccc5c4)c3)CC2)=C(c2ccc(Cl)cc2)C1 [Venetoclax]; details: max 1 µM
Procedure, shortened: as §1

Gemcitabine = compound: Nc1ccn([C@@H]2O[C@H](CO)[C@@H](O)C2(F)F)c(=O)n1 [Gemcitabine]; details: max 0.3 µM
Procedure, shortened: as §1

Dasatinib = compound: CC1=C(C(=CC=C1)Cl)NC(=O)C2=CN=C(S2)NC3=CC(=NC(=N3)C)N4CCN(CC4)CCO [Dasatinib]; details: max 2 µM
Procedure, shortened: as §1

Savolitinib = compound: C[C@@H](c1ccc2nccn2c1)n1nnc2ncc(-c3cnn(C)c3)nc21 [Savolitinib]; details: max 1 µM
Procedure, shortened: as §1

Crizotinib = compound: C[C@@H](Oc1cc(-c2cnn(C3CCNCC3)c2)cnc1N)c1c(Cl)ccc(F)c1Cl [Crizotinib]; details: max 10 µM
Procedure, shortened: as §1

Taselisib = compound: Cc1nc(-c2cn3c(n2)-c2ccc(-c4cnn(C(C)(C)C(N)=O)c4)cc2OCC3)n(C(C)C)n1 [Taselisib]; details: max 10 µM
Procedure, shortened: as §1

MK-2206 = compound: NC1(c2ccc(-c3nc4ccn5c(=O)[nH]nc5c4cc3-c3ccccc3)cc2)CCC1 [MK-2206]; details: max 10 µM
Procedure, shortened: as §1

AZD4320 = compound: CN(CC[C@H](CSC1=CC=CC=C1)NC2=C(C=C(C=C2)S(=O)(=O)NC(=O)C3=CC=C(C=C3)N4CCC(CC4)[C@H](C5=CC=CC=C5C6=CC=C(C=C6)Cl)O)S(=O)(=O)C(F)(F)F)CCO [AZD4320]; details: max 1 µM
Procedure, shortened: as §1

Trametinib = compound: CC(=O)Nc1cccc(-n2c(=O)n(C3CC3)c(=O)c3c(Nc4ccc(I)cc4F)n(C)c(=O)c(C)c32)c1 [Trametinib]; details: max 1 µM
Procedure, shortened: as §1

Alisertib = compound: COc1cc(Nc2ncc3c(n2)-c2ccc(Cl)cc2C(c2c(F)cccc2OC)=NC3)ccc1C(=O)O [Alisertib]; details: max 10 µM
Procedure, shortened: as §1

Olaparib = compound: O=C(c1cc(Cc2n[nH]c(=O)c3ccccc23)ccc1F)N1CCN(C(=O)C2CC2)CC1 [Olaparib]; details: max 10 µM
Procedure, shortened: as §1

AZD0156 = compound: CN(C)CCCOc1ccc(-c2ccc3ncc4c(c3c2)n(C2CCOCC2)c(=O)n4C)cn1 [AZD0156]; details: max 3 µM
Procedure, shortened: as §1

Selumetinib = compound: Cn1cnc2c(F)c(Nc3ccc(Br)cc3Cl)c(C(=O)NOCCO)cc21 [Selumetinib]; details: max 10 µM
Procedure, shortened: as §1

Palbociclib = compound: CC(=O)c1c(C)c2cnc(Nc3ccc(N4CCNCC4)cn3)nc2n(C2CCCC2)c1=O [Palbociclib]; details: max 10 µM
Procedure, shortened: as §1

AZD5363 = compound: C1CN(CCC1(C(=O)N[C@@H](CCO)C2=CC=C(C=C2)Cl)N)C3=NC=NC4=C3C=CN4 [AZD5363]; details: max 10 µM
Procedure, shortened: as §1

AZD5991 = compound: Cc1c2c(nn1C)CSCc1cc(n(C)n1)CSc1cc(c3ccccc3c1)OCCCc1c(C(=O)O)n(C)c3c-2c(Cl)ccc13 [AZD5991]; details: max 1 µM
Procedure, shortened: as §1

Gefitinib = compound: COc1cc2ncnc(Nc3ccc(F)c(Cl)c3)c2cc1OCCCN1CCOCC1 [Gefitinib]; details: max 10 µM
Procedure, shortened: as §1

Etoposide = compound: COc1cc([C@@H]2c3cc4c(cc3[C@@H](O[C@@H]3O[C@@H]5CO[C@@H](C)O[C@H]5[C@H](O)[C@H]3O)[C@H]3COC(=O)[C@H]23)OCO4)cc(OC)c1O [Etoposide]; details: max 10 µM
Procedure, shortened: as §1

AZD7648 = compound: Cc1cc2ncnn2cc1Nc1ncc2c(n1)n(C1CCOCC1)c(=O)n2C [AZD7648]; details: max 10 µM
Procedure, shortened: as §1

5-Fluorouracil = compound: O=c1[nH]cc(F)c(=O)[nH]1 [5-Fluorouracil]; details: max 20 µM
Procedure, shortened: as §1

SG3199 = compound: CC1=CN2[C@@H](C1)C=NC3=CC(=C(C=C3C2=O)OC)OCCCCCOC4=C(C=C5C(=C4)N=C[C@@H]6CC(=CN6C5=O)C)OC [SG3199]; details: max 0.001 µM
Procedure, shortened: as §1

Lapatinib = compound: CS(=O)(=O)CCNCc1ccc(-c2ccc3ncnc(Nc4ccc(OCc5cccc(F)c5)c(Cl)c4)c3c2)o1 [Lapatinib]; details: max 10 µM
Procedure, shortened: as §1

AZD2811 = compound: CCN(CCO)CCCOc1ccc2c(Nc3cc(CC(=O)Nc4cccc(F)c4)[nH]n3)ncnc2c1 [AZD2811]; details: max 1 µM
Procedure, shortened: as §1

[1] = compound: O=C(Nc1ccc2[nH]nc(-c3ccncc3)c2c1)[C@@H]1CCN(CC(=O)N2CCN(c3ccc(-c4ncccn4)cc3)CC2)C1; details: max 5 µM
Procedure, shortened: as §1

AZD6738 = compound: C[C@@H]1COCCN1C2=NC(=NC(=C2)C3(CC3)[S@](=N)(=O)C)C4=C5C=CNC5=NC=C4 [AZD6738]; details: max 10 µM
Procedure, shortened: as §1

Carboplatin = compound: C1CC(C1)(C(=O)[O-])C(=O)[O-].N.N.[Pt+2] [Carboplatin]; details: max 10 µM
Procedure, shortened: as §1

AZD1775 = compound: C=CCn1c(=O)c2cnc(Nc3ccc(N4CCN(C)CC4)cc3)nc2n1-c1cccc(C(C)(C)O)n1 [AZD1775]; details: max 3 µM
Procedure, shortened: as §1

AZD1390 = compound: CC(C)n1c(=O)n(C)c2cnc3cc(F)c(-c4ccc(OCCCN5CCCCC5)nc4)cc3c21 [AZD1390]; details: max 0.3 µM
Procedure, shortened: as §1

SN-38 = compound: CCc1c2c(nc3ccc(O)cc13)-c1cc3c(c(=O)n1C2)COC(=O)[C@]3(O)CC [SN-38]; details: max 0.3 µM
Procedure, shortened: as §1

Row | Cell Line | IC50, cell viability 72 h (Paclitaxel) [nM] | IC50, cell viability 72 h (Doxorubicin) [nM] | IC50, cell viability 72 h (AZD5153) [nM] | IC50, cell viability 72 h (AZD8186) [nM] | IC50, cell viability 72 h (SRA737) [nM] | IC50, cell viability 72 h (Prexasertib) [nM] | IC50, cell viability 72 h (Venetoclax) [nM] | IC50, cell viability 72 h (Gemcitabine) [nM] | IC50, cell viability 72 h (Dasatinib) [nM] | IC50, cell viability 72 h (Savolitinib) [nM] | IC50, cell viability 72 h (Crizotinib) [nM] | IC50, cell viability 72 h (Taselisib) [nM] | IC50, cell viability 72 h (MK-2206) [nM] | IC50, cell viability 72 h (AZD4320) [nM] | IC50, cell viability 72 h (Trametinib) [nM] | IC50, cell viability 72 h (Alisertib) [nM] | IC50, cell viability 72 h (Olaparib) [nM] | IC50, cell viability 72 h (AZD0156) [nM] | IC50, cell viability 72 h (Selumetinib) [nM] | IC50, cell viability 72 h (Palbociclib) [nM] | IC50, cell viability 72 h (AZD5363) [nM] | IC50, cell viability 72 h (AZD5991) [nM] | IC50, cell viability 72 h (Gefitinib) [nM] | IC50, cell viability 72 h (Etoposide) [nM] | IC50, cell viability 72 h (AZD7648) [nM] | IC50, cell viability 72 h (5-Fluorouracil) [nM] | IC50, cell viability 72 h (SG3199) [nM] | IC50, cell viability 72 h (Lapatinib) [nM] | IC50, cell viability 72 h (AZD2811) [nM] | IC50, cell viability 72 h [1] [nM] | IC50, cell viability 72 h (AZD6738) [nM] | IC50, cell viability 72 h (Carboplatin) [nM] | IC50, cell viability 72 h (AZD1775) [nM] | IC50, cell viability 72 h (AZD1390) [nM] | IC50, cell viability 72 h (SN-38) [nM]
1 | Mo-T (Other Blood Carcinomas) | 106 | 217 | 343 | > 10000 | > 10000 | > 1000 | > 1000 | 52.6 | > 2000 | > 1000 | > 10000 | > 10000 | > 10000 | 671 | > 1000 | > 10000 | > 10000 | > 3000 | > 10000 | > 10000 | > 10000 | > 1000 | > 10000 | 1090 | > 10000 | > 20000 | > 1 | > 10000 | > 1000 | > 5000 | > 10000 | > 10000 | 790 | > 300 | 44
2 | NCI-H1993 (Lung Adenocarcinoma) | 11.2 | 249 | > 1000 | > 10000 | > 10000 | 62.5 | > 1000 | 15.5 | > 2000 | 22 | 309 | 4520 | 4430 | 383 | 89.4 | > 10000 | > 10000 | > 3000 | 9990 | > 10000 | 5220 | > 1000 | > 10000 | 6590 | > 10000 | 9360 | > 1 | > 10000 | > 1000 | 3250 | > 10000 | > 10000 | 1340 | > 300 | 262
